Structures can show the parent of a compound that is named as a salt.
Molecular target: T1, hNET (Homo sapiens, UniProt P23975)
T1 construct: expressed in transfected cells
Assay: Norepinephrine (NE) uptake assay in MDCK-Net6 cells stably transfected with human hNET
Format: cell-based
Details: [3H]NE uptake; for inhibition at 1 µM: MDCK-Net6, 1 μM test compound; for EC50: test range 1 to 10,000 nM
Description: MDCK-Net6 cells, stably transfected with human hNET (Pacholczyk, T., R. D. Blakely, and S. G. Amara, Nature, 1991, 350(6316): p. 350-4) were cultured in growth medium containing high glucose DMEM (Gibco, Cat. No. 11995), 10% FBS (dialyzed, heat-inactivated, US Bio-Technologies, Lot FBD1129HI) and 500 μg/ml G418 (Gibco, Cat. No. 10131). Cells were plated at 300,000/T75 flask and cells were split twice weekly. The JAR cell line (human placental choriocarcinoma) was purchased from ATCC (Cat. No. HTB-144). The cells were cultured in growth medium containing RPMI 1640 (Gibco, Cat. No. 72400), 10% FBS (Irvine, Cat. No. 3000), 1% sodium pyruvate (Gibco, Cat. No. 1136) and 0.25% glucose. Cells were plated at 250,000 cells/T75 flask and split twice weekly. For all assays, cells were plated in Wallac 96-well sterile plates (PerkinElmer, Cat. No. 3983498).
Norepinephrine (NE) Uptake Assay
On day 1, cells were plated at 3,000 cells/well in growth medium and maintained in a cell incubator (37° C., 5% CO2). On day 2, growth medium was replaced with 200 μl of assay buffer (25 mM HEPES; 120 mM NaCl; 5 mM KCl; 2.5 mM CaCl2; 1.2 mM MgSO4; 2 mg/ml glucose (pH 7.4, 37° C.)) containing 0.2 mg/ml ascorbic acid and 10 μM pargyline. Plates containing cells with […] of assay buffer were equilibrated for 10 minutes at 37° C. prior to addition of compounds. A stock solution of desipramine was prepared in DMSO (10 mM) and delivered to triplicate wells containing cells for a final test concentration of 1 μM. Data from these wells were used to define non-specific NE uptake (minimum NE uptake). Test compounds were prepared in DMSO (10 mM) and diluted in assay buffer according to test range (1 to 10,000 nM). Twenty-five microliters of assay buffer (maximum NE uptake) or test compound were added directly to triplicate wells containing cells in 200 μl of assay buffer. The cells in assay buffer with test compounds were incubated for 20 minutes at 37° C. To initiate the NE uptake, [^3H]NE diluted in assay buffer (120 nM final assay concentration) was delivered in 25 μl aliquots to each well and the plates were incubated for 5 minutes (37° C.). The reaction was terminated by decanting the supernatant from the plate. The plates containing cells were washed twice with 200 μl assay buffer (37° C.) to remove free radioligand. The plates were then inverted, left to dry for 2 minutes, then reinverted and air-dried for an additional 10 minutes. The cells were lysed in 25 μl of 0.25 N NaOH solution (4° C.), placed on a shake table and vigorously shaken for 5 minutes. After cell lysis, 75 μl of scintillation cocktail was added to each well and the plates were sealed with film tape. The plates were returned to the shake table and vigorously shaken for a minimum of 10 minutes to ensure adequate partitioning of organic and aqueous solutions. The plates were counted in a Wallac Microbeta counter (PerkinElmer) to collect the raw cpm data.
For each experiment, a data stream of cpm values collected from the Wallac Microbeta counter was downloaded to a Microsoft Excel statistical application program. Calculations of EC50 values were made using the transformed-both-sides logistic dose response program written by Wyeth Biometrics Department. The statistical program uses mean cpm values from wells representing maximum binding or uptake (assay buffer) and mean cpm values from wells representing minimum binding or uptake ((1 μM desipramine (hNET) or 1 μM paroxetine (hSERT)). Estimation of the EC50 value was completed on a log scale and the line was fit between the maximum and minimum binding or uptake values. All graphic data representation was generated by normalizing each data point to a mean percent based on the maximum and minimum binding or uptake values. The EC50 values reported from multiple experiments were calculated by pooling the raw data from each experiment and analyzing the pooled data as one experiment.

T1 sequence (P23975 whole entry): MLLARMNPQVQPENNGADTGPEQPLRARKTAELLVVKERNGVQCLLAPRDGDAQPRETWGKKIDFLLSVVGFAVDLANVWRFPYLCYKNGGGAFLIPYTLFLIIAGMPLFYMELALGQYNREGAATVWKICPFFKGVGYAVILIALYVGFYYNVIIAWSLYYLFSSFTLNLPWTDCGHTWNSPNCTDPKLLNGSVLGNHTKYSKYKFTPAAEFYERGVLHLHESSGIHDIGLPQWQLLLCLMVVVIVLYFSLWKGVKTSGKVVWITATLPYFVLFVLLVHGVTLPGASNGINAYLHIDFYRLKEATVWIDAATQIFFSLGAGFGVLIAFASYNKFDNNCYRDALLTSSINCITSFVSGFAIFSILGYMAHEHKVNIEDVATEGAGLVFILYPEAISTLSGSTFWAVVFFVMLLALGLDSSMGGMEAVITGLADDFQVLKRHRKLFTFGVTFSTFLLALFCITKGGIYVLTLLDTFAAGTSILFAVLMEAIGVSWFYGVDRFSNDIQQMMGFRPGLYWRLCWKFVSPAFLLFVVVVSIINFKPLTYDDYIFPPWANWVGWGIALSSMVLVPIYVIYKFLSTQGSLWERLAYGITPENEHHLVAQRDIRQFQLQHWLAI

| inhibition at 1 µM | EC50 | % Inhibition @ 1 μM (hNET) (1 μM test compound, dihydrochloride, 1 µM) | SMILES |
| --- | --- | --- | --- |
| 67% | 320 nM | – | COc1ccc2cc([C@@H](CN3CCC(N4CCCCC4)CC3)C3(O)CCCCC3)ccc2c1 (single isomer, unassigned) [Example 353, dihydrochloride] |
| 82% | 400 nM | – | COc1ccc2cc([C@H](CN3CCC(N4CCCCC4)CC3)C3(O)CCCCC3)ccc2c1 (single isomer, unassigned) [Example 354, dihydrochloride] |
| 71% | 730 nM | – | CNC1CCN(C[C@H](c2cccc(Cl)c2)C2CCCCC2)CC1 (single isomer, unassigned) [Example 355, dihydrochloride] |
| 56% | – | – | CNC1CCN(C[C@@H](c2cccc(Cl)c2)C2CCCCC2)CC1 (single isomer, unassigned) [Example 356, dihydrochloride] |
| – | – | 41.2% | CNC1CCN(CC(c2cccc(C(F)(F)F)c2)C2(O)CCCCC2)C1 (stereo in doubt) [Example 223, 1-{2-[(3R)-3-(methylamino)pyrrolidin-1-yl]-1-[3-(trifluoromethyl)phenyl]ethyl}cyclohexanol dihydrochloride] |
| 100% | 45 nM | – | OC1(C(CN2CCC(N3CCCCC3)CC2)c2cccc(Cl)c2)CCCCC1 (stereo not drawn) [Example 2, 1-[2-(1,4′-bipiperidin-1′-yl)-1-(3-chlorophenyl)ethyl]cyclohexanol dihydrochloride] |
| 100% | 53 nM | – | OC1(C(CN2CCC(N3CCCC3)CC2)c2cccc(Cl)c2)CCCCC1 (stereo not drawn) [Example 3, 1-[1-(3-chlorophenyl)-2-(4-pyrrolidin-1-ylpiperidin-1-yl)ethyl]cyclohexanol dihydrochloride] |
| 97% | 160 nM | – | OC1(C(CN2CCC(N3CCCCC3)CC2)c2cccc(Br)c2)CCCCC1 (stereo not drawn) [Example 4, 1-[2-(1,4′-bipiperidin-1′-yl)-1-(3-bromophenyl)ethyl]cyclohexanol dihydrochloride] |
| 96% | 70 nM | – | OC1(C(CN2CCC(N3CCCC3)CC2)c2cccc(Br)c2)CCCCC1 (stereo not drawn) [Example 7, 1-[1-(3-bromophenyl)-2-(4-pyrrolidin-1-ylpiperidin-1-yl)ethyl]cyclohexanol dihydrochloride] |
| 95% | 140 nM | – | COc1ccc(C(CN2CCC(N3CCCCC3)CC2)C2(O)CCCCC2)cc1Br (stereo not drawn) [Example 8, 1-[2-(1,4′-bipiperidin-1′-yl)-1-(3-bromo-4-methoxyphenyl)ethyl]cyclohexanol dihydrochloride] |
| 93% | 180 nM | – | COc1ccc(C(CN2CCC(N3CCCC3)CC2)C2(O)CCCCC2)cc1Br (stereo not drawn) [Example 9, 1-[1-(3-bromo-4-methoxyphenyl)-2-(4-pyrrolidin-1-ylpiperidin-1-yl)ethyl]cyclohexanol dihydrochloride] |
| 91% | 260 nM | – | OC1(C(CN2CCC(N3CCCC3)CC2)c2ccc(Cl)c(Cl)c2)CCCCC1 (stereo not drawn) [Example 11, 1-[1-(3,4-dichlorophenyl)-2-(4-pyrrolidin-1-ylpiperidin-1-yl)ethyl]cyclohexanol dihydrochloride] |
| 89% | 210 nM | – | CNC1CCN(CC(c2ccc(Cl)c(Cl)c2)C2(O)CCCCC2)CC1 (stereo not drawn) [Example 13, 1-{1-(3,4-dichlorophenyl)-2-[4-(methylamino)piperidin-1-yl]ethyl}cyclohexanol dihydrochloride] |
| 84% | 89 nM | – | NC1CCN(CC(c2ccc(Cl)c(Cl)c2)C2(O)CCCCC2)CC1 (stereo not drawn) [Example 14, 1-[2-(4-aminopiperidin-1-yl)-1-(3,4-dichlorophenyl)ethyl]cyclohexanol dihydrochloride] |
| 89% | 120 nM | – | N[C@H]1CCN(CC(c2cccc(Cl)c2)C2(O)CCCCC2)C1 (stereo partly drawn) [Example 16, 1-[2-[(3S)-3-aminopyrrolidin-1-yl]-1-(3-chlorophenyl)ethyl]cyclohexanol dihydrochloride] |
| 88% | 91 nM | – | CNC1CCN(CC(c2cccc(Cl)c2)C2(O)CCCCC2)CC1 (stereo not drawn) [Example 17, 1-{1-(3-chlorophenyl)-2-[4-(methylamino)piperidin-1-yl]ethyl}cyclohexanol dihydrochloride] |
| 88% | 200 nM | – | NC1CCN(CC(c2cccc(Br)c2)C2(O)CCCCC2)CC1 (stereo not drawn) [Example 18, 1-[2-(4-aminopiperidin-1-yl)-1-(3-bromophenyl)ethyl]cyclohexanol dihydrochloride] |
| 88% | 88 nM | – | CNC1CCN(CC(c2cccc(Br)c2)C2(O)CCCCC2)CC1 (stereo not drawn) [Example 19, 1-{1-(3-bromophenyl)-2-[4-(methylamino)piperidin-1-yl]ethyl}cyclohexanol dihydrochloride] |
| 88% | 260 nM | – | OC1(C(CN2CCC(N3CCCCC3)CC2)c2cccc(C(F)(F)F)c2)CCCCC1 (stereo not drawn) [Example 20, 1-{2-(1,4′-bipiperidin-1′-yl)-1-[3-(trifluoromethyl)phenyl]ethyl}cyclohexanol dihydrochloride] |
| 85% | 160 nM | – | OC1(C(CN2CCC(N3CCCCC3)CC2)c2ccc3ccccc3c2)CCCCC1 (stereo not drawn) [Example 22, 1-[2-(1,4′-bipiperidin-1′-yl)-1-(2-naphthyl)ethyl]cyclohexanol dihydrochloride] |
| 85% | 200 nM | – | COc1ccc(C(CN2CCC(N)CC2)C2(O)CCCCC2)cc1Br (stereo not drawn) [Example 25, 1-[2-(4-aminopiperidin-1-yl)-1-(3-bromo-4-methoxyphenyl)ethyl]cyclohexanol dihydrochloride] |
| 84% | 200 nM | – | OC1(C(CN2CCC(N3CCCC3)CC2)c2cccc(C(F)(F)F)c2)CCCCC1 (stereo not drawn) [Example 26, 1-{2-(4-pyrrolidin-1-ylpiperidin-1-yl)-1-[3-(trifluoromethyl)phenyl]ethyl}cyclohexanol dihydrochloride] |
| 79% | 150 nM | – | CNC1CCN(CC(c2ccc(OC)c(Br)c2)C2(O)CCCCC2)CC1 (stereo not drawn) [Example 29, 1-{1-(3-bromo-4-methoxyphenyl)-2-[4-(methylamino)piperidin-1-yl]ethyl}cyclohexanol dihydrochloride] |
| 79% | 530 nM | – | CNC1CCN(CC(c2cccc(C(F)(F)F)c2)C2(O)CCCCC2)CC1 (stereo not drawn) [Example 30, 1-{2-[4-(methylamino)piperidin-1-yl]-1-[3-(trifluoromethyl)phenyl]ethyl}cyclohexanol dihydrochloride] |
| 70% | 50 nM | – | OC1(C(CN2CCC(N3CCCC3)CC2)c2ccc3ccccc3c2)CCCCC1 (stereo not drawn) [Example 31, 1-[1-(2-naphthyl)-2-(4-pyrrolidin-1-ylpiperidin-1-yl)ethyl]cyclohexanol dihydrochloride] |
| 69% | 170 nM | – | NC1CCN(CC(c2ccc3ccccc3c2)C2(O)CCCCC2)CC1 (stereo not drawn) [Example 32, 1-[2-(4-aminopiperidin-1-yl)-1-(2-naphthyl)ethyl]cyclohexanol dihydrochloride] |
| 59% | 52 nM | – | NC1CCN(CC(c2cccc(Cl)c2)C2(O)CCCCC2)CC1 (stereo not drawn) [Example 35, 1-[2-(4-aminopiperidin-1-yl)-1-(3-chlorophenyl)ethyl]cyclohexanol dihydrochloride] |
| 57% | 130 nM | – | CN(C)C1CCN(CC(c2cccc(Cl)c2)C2(O)CCCCC2)CC1 (stereo not drawn) [Example 36, 1-{1-(3-chlorophenyl)-2-[4-(dimethylamino)piperidin-1-yl]ethyl}cyclohexanol dihydrochloride] |
